Legend:
C. jejuni = assay: ELISA: inhibition of C. jejuni adherence to BgAgs (Core-I, Core-II, H-I, H-II, Leb, Ley, Lex) by Ferric Quinate; assay type: binding, Campylobacter jejuni; conditions: for Inhibition of C. jejuni binding to BgAgs: 34 μM Fe(QA)3, pre-incubation and post-treatment, ELISA
Description: The inhibitory potential of Ferric Quinate Fe(QA)3 on adherence of C. jejuni was analyzed by ELISA using BgAgs (Core-I, Core-II, H-I, H-II, Leb, Ley and Lex). C. jejuni was pre-incubated with 34 μM Fe(QA)3 and specific inhibition was also analyzed by post-treatment of C. jejuni with Fe(QA)3 which bound to BgAgs at the time.

C. jejuni NCTC11168-O = assay: Chicken caecal colonisation after oral challenge, Ferric Quinate as additive to water; assay type: in vivo; conditions: 0.34 mM in water, 6-weeks old birds, 3 and 7 days post-challenge
Description: These inhibitory properties against C. jejuni adherence to BgAgs were analyzed in vivo. Ferric Quinate was used as an additive to water (0.034-0.34 mM) and as an inhibitor of C. jejuni NCTC11168 strain adherence to, and thus colonization, in the chicken intestinal tract. 6-weeks old birds (n=10 per group) were challenged with 3×10^3-5 cfu wild-type strain NCTC11168-O by oral gavage. Caecal colonisation levels were determined in birds from each group at 3 and 7 days post-challenge.

[1] = test system: C. jejuni NCTC11168 strain; assay: Growth of C. jejuni in culture medium supplemented with Fe(QA)3; assay type: cell-based, Campylobacter jejuni; conditions: 34 and 340 μM in culture medium
Description: To further clarify the growth-effect properties of Fe(QA)3, we investigated the effect of adding Fe(QA)3 to the culture medium.

[2] = test system: C. jejuni strain NCTC11168; assay: Inhibition ELISA of binding of strain NCTC11168 to H-II glycoconjugate; set-up: species or system Campylobacter jejuni; conditions: p<0.001, FIG. 2A
Description: Purified MOMP from NCTC11168 (MOMP(+)), and pre-incubation of NCTC11168 bacterial cells with H-II glycoconjugate (H-II). […] B) ELISA plate was coated with a selection of BgAgs. Specific binding was calculated by subtracting the BSA (negative control) values from the BgAg absorbance at 405 nm. Strain NCTC11168 and Cj-266 (high binder strain, S3—Table 1), and corresponding ΔflaA mutants, have been examined for binding to Le^b, H-II, H-I, Le^x and Le^a. t-test confirmed the reduction in binding seen with mutants are significant (Le^b; p=2.5E-05, H-II; p=0.012, H-I; p=0.001, Le^x; p=0.029 and Le^a; p=0.000) in strain NCTC11168. However, Cj-266ΔflaA mutation had no effect on binding, which indicates the binding capacity was compensated by MOMP protein. Each group of bars from left to right: NCTC11168, 11168-ΔflaA, Cj-266, Cj-266ΔflaA. C) A double mutant (DM) of ΔflaA and single substitution of glycosylation site in MOMP protein (Thr^268 was substituted with Gly) was constructed in both strain NCTC11168 and Cj-266, and the binding to Le^b H-I and H-II was examined. […] Each group of bars from left to right: Leb, H-II, H-1.
Deletion mutant of ΔflaA in strains NCTC11168 and Cj-266 (a clinical isolate, S3—Table) were constructed.

| Molecule | Inhibition of C. jejuni binding to BgAgs (C. jejuni) | Reduction of adhesion of C. jejuni to the intestinal mucosa (caecal colonisation) (C. jejuni NCTC11168-O) | Inhibition of microbial adherence, bacterial culture (MH) containing Fe(QA)3 (C. jejuni; bacteria cultured on MH containing Fe(QA)3) | Resistance concerning the binding abilities after sequential passages (C. jejuni; sequential passages (P) of bacteria to new plate containing Fe(QA)3) | Effect on growth of C. jejuni NCTC11168 [1] | Bacterial binding to H-II antigen [2] | Bacterial binding to H-II antigen ([2]; listed as purified MOMP) |
| --- | --- | --- | --- | --- | --- | --- | --- |
| O=C(O)[C@]1(O)C[C@@H](O)[C@@H](O)[C@H](O)C1 [Quinic Acid, D-(−)-quinic acid, reference compound] | no inhibition |  |  |  |  |  |  |
| Ferric quinate [Fe(QA)3] | 90% | 2-3 Log | reproducible inhibition | didn't cause any resistance | did not affect the growth |  |  |
| MOMP(+): major outer membrane protein purified under native conditions from C. jejuni strain NCTC11168 (protein) TPLEEAIKDVDVSGVLRYRYDTGNFDKNFVNNSNLNNSKQDHKYRAQVNFSAAIADNFKAFVQFDYNAADGGYGANGIKNDQKGLFVRQLYLTYTNEDVATSVIAGKQQLNLIWTDNAIDGLVGTGVKVVNNSIDGLTLAAFAVDSFMAAEQGADLLEHSNISTTSNQAPFKVDSVGNLYGAAAVGSYDLAGGQFNPQLWLAYWDQVAFFYAVDAAYSTTIFDGINWTLEGAYLGNSLDSELDDKTHANGNLFALKGSIEVNGWDASLGGLYYGDKEKASTVVIEDQGNLGSLLAGEEIFYTTGSRLNGDTGRNIFGYVTGGYTFNETVRVGADFVYGGTKTEAANHLGGGKKLEAVARVDYKYSPKLNFSAFYSYVNLDQGVNTNESADHSTVRLQALYKF |  |  |  |  |  | significantly reduced | significantly inhibited |
